Laboratory results as given in paper PMC7096405, “Field evaluation of sex pheromones and binding specificity of pheromone binding protein 4 in Tryporyza intacta (Lepidoptera: Crambidae)” (Scientific Reports, 2020).

Target: TintPBP4 (pheromone binding protein 4)
Experiment: fluorescence competitive binding assay, displacement of 1-NPN
Design: species or system Tryporyza intacta

CCCC/C=C/CCCCCCCCCC=O [compound 1, E11-16: Ald]
Ki: 2.97 µM

CCCC/C=C\CCCCCCCCCC=O [compound 2, Z11-16: Ald]
Ki: 2.51 µM
